Data: patent US12209085B2, “RET inhibitors, pharmaceutical compositions and uses thereof” (SUNSHINE LAKE PHARMA CO., LTD., priority 2018, dated 2025)

Assays:
Ret wt = Ret wt (Homo sapiens (Human), UniProt P07949); assay: HTRF kinase inhibition assay, Ret wt; type: biochemical; details: HTRF method
From the text: (§1) • 1. […] 1) • 18) Echo (Labcyte, 550) • 3.
(§2) [formula] • Ratiopositive control: average of CEP-32496 readings in all positive control wells • Rationegative control: average of DMSO readings in all negative control wells • Wherein, the chemical name of CEP-32496 is: N-[3-[(6,7-dimethoxy-4-quinazolinyl)oxy]phenyl]-N′-[5-(2,2,2-trifluoro-1,1-dimethylethyl)-3-isoxazolyl]urea. • 4.3 Calculation of the IC50 and Drawing of the inhibition curve of the compound: • The IC50 (half inhibitory concentration) of the compound was obtained using the following non-linear fitting formula: Data analysis was performed using Graphpad 6.0 software. Y=Bottom+(Top−Bottom)/(1+10^((Log IC50−X)*Hill Slope)) • X: compound concentration log value Y: inhibition, % • 5.

Ret V804M = Ret V804M (Homo sapiens (Human), UniProt P07949, V804M); assay: HTRF kinase inhibition assay, Ret V804M; type: biochemical; details: HTRF method
From the text: as §1, §2

Ret wt, sequence (P07949 29-1114): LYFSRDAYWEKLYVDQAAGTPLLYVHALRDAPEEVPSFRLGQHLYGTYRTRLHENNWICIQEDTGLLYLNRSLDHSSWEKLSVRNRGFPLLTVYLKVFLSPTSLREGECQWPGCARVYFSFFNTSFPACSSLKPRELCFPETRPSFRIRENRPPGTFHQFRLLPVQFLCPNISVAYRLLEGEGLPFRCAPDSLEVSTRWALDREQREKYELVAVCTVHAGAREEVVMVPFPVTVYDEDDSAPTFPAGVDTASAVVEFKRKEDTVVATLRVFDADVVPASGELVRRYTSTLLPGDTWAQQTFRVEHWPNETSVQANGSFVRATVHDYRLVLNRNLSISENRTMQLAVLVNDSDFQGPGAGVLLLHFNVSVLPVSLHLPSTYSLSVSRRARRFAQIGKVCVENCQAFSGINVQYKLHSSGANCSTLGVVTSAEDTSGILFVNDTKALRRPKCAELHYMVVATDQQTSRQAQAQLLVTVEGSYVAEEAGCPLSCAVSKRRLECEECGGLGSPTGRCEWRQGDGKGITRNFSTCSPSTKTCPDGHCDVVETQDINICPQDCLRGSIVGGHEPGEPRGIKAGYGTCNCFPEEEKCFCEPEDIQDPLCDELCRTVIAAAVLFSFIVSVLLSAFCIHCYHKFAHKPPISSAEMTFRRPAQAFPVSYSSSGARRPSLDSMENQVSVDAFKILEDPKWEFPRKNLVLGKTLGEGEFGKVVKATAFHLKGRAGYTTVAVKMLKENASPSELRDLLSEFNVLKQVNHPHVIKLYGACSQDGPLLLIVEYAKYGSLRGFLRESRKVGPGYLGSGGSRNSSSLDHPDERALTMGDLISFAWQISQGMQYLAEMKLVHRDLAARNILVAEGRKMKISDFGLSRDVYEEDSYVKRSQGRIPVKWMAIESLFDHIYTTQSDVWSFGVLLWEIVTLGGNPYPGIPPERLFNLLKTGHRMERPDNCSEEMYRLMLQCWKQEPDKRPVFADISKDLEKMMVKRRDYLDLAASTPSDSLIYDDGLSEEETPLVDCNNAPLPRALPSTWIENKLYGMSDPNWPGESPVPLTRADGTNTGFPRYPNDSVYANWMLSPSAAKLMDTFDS
Ret V804M, sequence (P07949 29-1114 V804M): as the sequence (P07949 29-1114) above, with V776M counted along it

Row | IC50 (Ret V804M) [nM] | SMILES | IC50 (Ret wt) [nM]
1 | 2.29 | C#Cc1ccc(OC2CN(c3ccc(-c4cc(-c5cnn(C(F)F)c5)cn5ncc(C#N)c45)cn3)C2)cn1 [Example 283, 6-(1-(difluoromethyl)-1H-pyrazol-4-yl)-4-(6-(3-((6-ethynylpyridin-3-yl)oxy)azetidin-1-yl)pyridin-3-yl)pyrazolo[1,5-a]pyridine-3-carbonitrile] | 0.39
2 | 5.47 | Cn1cc(-c2cc(-c3ccc(N4CCN(CC#Cc5ccccc5)CC4)nc3)c3c(C#N)cnn3c2)cn1 [Example 253, 6-(1-methyl-1H-pyrazol-4-yl)-4-(6-(4-(3-phenylprop-2-yn-1-yl)piperazin-1-yl)pyridine-3-yl)pyrazolo[1,5-a]pyridine-3-carbonitrile] | 0.91
3 | 10.3 | C#CCNC1(C)CCN(c2ccc(-c3cc(-c4cnn(C)c4)cn4ncc(C#N)c34)cn2)CC1 [Example 277, 6-(1-methyl-1H-pyrazol-4-yl)-4-(6-(4-methyl-4-(prop-2-yn-1-ylamino)piperidin-1-yl)pyridin-3-yl)pyrazolo[1,5-a]pyridine-3-carbonitrile] | 1.38
4 | – | C#Cc1cc(CN2C3CC2CN(c2ccc(-c4cc(-c5cnn(C)c5)cn5ncc(C#N)c45)cn2)C3)ccn1 [Example 217, 4-(6-(6-((2-ethynylpyridin-4-yl)methyl)-3,6-diazabicyclo[3.1.1]heptan-3-yl)pyridin-3-yl)-6-(1-methyl-1H-pyrazol-4-yl)pyrazolo[1,5-a]pyridine-3-carbonitrile] | 0.35
5 | – | C#Cc1cccc(C(=O)N2CCC3(CCN(c4ccc(-c5cc(-c6cnn(C)c6)cn6ncc(C#N)c56)cn4)CC3)C2)c1 [Example 229, 4-(6-(2-(3-ethynyl)-2,8-diazaspiro[4.5]dec-8-yl)pyridin-3-yl)-6-(1-methyl-1H-pyrazol-4-yl)pyrazolo[1,5-a]pyridine-3-carbonitrile] | 25.1
6 | 27.9 | COc1ccc(C#CCN2CCN(c3ccc(-c4cc(-c5cnn(C)c5)cn5ncc(C#N)c45)cn3)CC2)cc1 [Example 251, 4-(6-(4-(3-(4-methoxyphenyl)prop-2-yn-1-yl)piperazin-1-yl)pyridin-3-yl)-6-(1-methyl-1H-pyrazolpyridin-4-yl)pyrazolo[1,5-a]pyridine-3-carbonitrile] | 2.41
7 | – | C#CCN1C2CC1CN(c1ccc(-c3cc(-c4cnn(C)c4)cn4ncc(C#N)c34)cn1)C2 [Example 195, 6-(1-methyl-1H-pyrazol-4-yl)-4-(6-(6-(prop-2-yn-1-yl)-3,6-diazabicyclo[3.1.1]heptan-3-yl)pyridin-3-yl)pyrazolo[1,5-a]pyridine-3-carbonitrile] | 0.29
8 | 18.3 | COc1cncc(C#CCN2CCN(c3ccc(-c4cc(-c5cnn(C)c5)cn5ncc(C#N)c45)cn3)CC2)c1 [Example 254, 4-(6-(4-(3-(5-methoxypyridin-3-yl)prop-2-yn-1-yl)piperazin-1-yl)pyridin-3-yl)-6-(1-methyl-1H-pyrazol-4-yl)pyrazolo[1,5-a]pyridine-3-carbonitrile] | 3.57
9 | 0.2 | C#Cc1ccc(OC2CN(c3ccc(-c4cc(-c5cnn(C)c5)cn5ncc(C#N)c45)cn3)C2)cn1 [Example 287, 4-(6-(3-((6-ethynylpyridin-3-yl)oxy)azetidin-1-yl)pyridin-3-yl)-6-(1-methyl-1H-pyrazol-4-yl) pyrazolo[1,5-a]pyridine-3-carbonitrile] | 0.13
10 | – | Cn1cc(-c2cc(-c3ccc(N4CC5CC(C4)N5CC#Cc4ccc(C(F)(F)F)cc4)nc3)c3c(C#N)cnn3c2)cn1 [Example 242, 6-(1-methyl-1H-pyrazol-4-yl)-4-(6-(6-(3-(4-(trifluoromethyl)phenyl)prop-2-yn-1-yl)-3,6-diazabicyclo[3.1.1]heptan-3-yl)pyridin-3-yl)pyrazolo[1,5-a]pyridine-3-carbonitrile] | 1.72
11 | 2.06 | C#Cc1ccc(C(=O)N2CCN(c3ccc(-c4cc(-c5cnn(C)c5)cn5ncc(C#N)c45)cn3)CC2)nc1 [Example 237, 4-(6-(4-(5-ethynylpicolinoyl)piperazin-1-yl)pyridin-3-yl)-6-(1-methyl-1H-pyrazol-4-yl)pyrazolo[1,5-a]pyridine-3-carbonitrile] | 0.39
12 | 0.71 | C#Cc1ccc(OC2CN(c3ccc(-c4cc(-c5cnn(C(F)F)c5)cn5ncc(C#N)c45)cn3)C2)cc1 [Example 285, 6-(1-(difluoromethyl)-1H-pyrazol-4-yl)-4-(6-(3-(4-ethynylphenoxy)azetidin-1-yl)pyridin-3-yl)pyrazolo[1,5-a]pyridine-3-carbonitrile] | 0.56
13 | – | Cn1cc(-c2cc(-c3ccc(N4CC5(CCN(C(=O)C#Cc6ccccc6)CC5)C4)nc3)c3c(C#N)cnn3c2)cn1 [Example 269, 6-(1-methyl-1H-pyrazol-4-yl)-4-(6-(7-(3-phenylpropioloyl)-2,7-diazaspiro[3.5]nonan-2-yl)pyridin-3-yl)pyrazolo[1,5-a]pyridine-3-carbonitrile] | 27
14 | – | C#Cc1cccc(C(C)N2C3CC2CN(c2ccc(-c4cc(-c5cnn(C)c5)cn5ncc(C#N)c45)cn2)C3)n1 (centres unmarked) [Example 219, 4-(6-(6-(1-(6-ethynylpyridin-2-yl)ethyl)-3,6-diazabicyclo[3.1.1]heptan-3-yl)pyridin-3-yl)-6-(1-methyl-1H-pyrazol-4-yl)pyrazolo[1,5-a]pyridine-3-carbonitrile] | 2.9
15 | – | C#Cc1cccc(C(=O)N2C3CC2CN(c2ccc(-c4cc(-c5cnn(C)c5)cn5ncc(C#N)c45)cn2)C3)c1 [Example 231, 4-(6-(6-(3-ethynyl)-3,6-diazabicyclo[3.1.1]heptan-3-yl)pyridin-3-yl)-6-(1-methyl-1H-pyrazol-4-yl)pyrazolo[1,5-a]pyridine-3-carbonitrile] | 3.75
16 | – | C#Cc1ccc(C(=O)NC2(C)CCN(c3ccc(-c4cc(-c5cnn(C)c5)cn5ncc(C#N)c45)cn3)CC2)cc1 [Example 2, N-(1-(5-(3-cyano-6-(1-methyl-1H-pyrazol-4-yl)pyrazolo[1,5-a]pyridin-4-yl)pyridin-2-yl)-4-methyl-piperidin-4-yl)-4-ethynylbenzamide] | 0.35
17 | – | C#Cc1ccc(C(=O)N2C3CC2CN(c2ccc(-c4cc(-c5cnn(C)c5)cn5ncc(C#N)c45)cn2)C3)cc1 [Example 230, 4-(6-(6-(4-ethynyl)-3,6-diazabicyclo[3.1.1]heptan-3-yl)pyridin-3-yl)-6-(1-methyl-1H-pyrazol-4-yl)pyrazolo[1,5-a]pyridine-3-carbonitrile] | 1.05
18 | – | C#Cc1cncc(CN2C3CC2CN(c2ccc(-c4cc(-c5cnn(C)c5)cn5ncc(C#N)c45)cn2)C3)c1 [Example 187, 4-(6-(6-((5-ethynylpyridin-3-yl)methyl)-3,6-diazabicyclo[3.1.1]heptan-3-yl)pyridin-3-yl)-6-(1-methyl-1H-pyrazol-4-yl)pyrazolo[1,5-a]pyridine-3-carbonitrile] | 0.28
19 | – | C#Cc1cc(CN2C3CC2CN(c2ccc(-c4cc(-c5cnn(C)c5)cn5ncc(C#N)c45)cn2)C3)ccc1F [Example 220, 4-(6-(3-(3-ethynyl-4-fluorobenzyl)-3,6-diazabicyclo[3.1.1]hept-3-yl)pyridin-3-yl)-6-(1-methyl-1H-pyrazol-4-yl)pyrazolo[1,5-a]pyridine-3-carbonitrile] | 0.22
20 | – | C#Cc1cccc(CN2C3CC2CN(c2ccc(-c4cc(-c5cnn(C)c5)cn5ncc(C#N)c45)cn2)C3)c1F [Example 218, 4-(6-(6-(3-ethynyl-2-fluorobenzyl)-3,6-diazabicyclo[3.1.1]heptan-3-yl)pyridin-3-yl)-6-(1-methyl-1H-pyrazol-4-yl)pyrazolo[1,5-a]pyridine-3-carbonitrile] | 0.52

Row | SMILES | IC50 (Ret V804M) [nM] | IC50 (Ret wt) [nM]
21 | C#Cc1ccc(C(=O)N2C3CC2CN(c2ccc(-c4cc(-c5cnn(C)c5)cn5ncc(C#N)c45)cn2)C3)nc1 [Example 238, 4-(6-(6-(5-ethynylpicolinoyl)-3,6-diazabicyclo[3.1.1]heptan-3-yl)pyridin-3-yl)-6-(1-methyl-1H-pyrazol-4-yl)pyrazolo[1,5-a]pyridine-3-carbonitrile] | 2.75 | 0.3
22 | Cn1cc(-c2cc(-c3ccc(N4CC5CC(C4)N5CC#Cc4cccnc4)nc3)c3c(C#N)cnn3c2)cn1 [Example 249, 6-(1-methylpyrazol-4-yl)-4-[6-[6-[3-(3-pyridyl)prop-2-ynyl]-3,6-diazabicyclo[3.1.1]heptan-3-yl]-3-pyridyl]pyrazolo[1,5-a]pyridine-3-carbonitrile] | 1.77 | 0.39
23 | C#Cc1cc(F)c(CN2C3CC2CN(c2ccc(-c4cc(-c5cnn(C)c5)cn5ncc(C#N)c45)cn2)C3)c(F)c1 [Example 222, 4-(6-(6-(4-ethynyl-2,6-difluorobenzyl)-3,6-diazabicyclo[3.1.1]heptan-3-yl)pyridin-3-yl)-6-(1-methyl-1H-pyrazol-4-yl)pyrazolo[1,5-a]pyridine-3-carbonitrile] | 4.35 | 0.43
24 | Cn1cc(-c2cc(-c3ccc(N4CC5CC(C4)N5C(=O)C#Cc4ccccc4)nc3)c3c(C#N)cnn3c2)cn1 [Example 271, 6-(1-methyl-1H-pyrazol-4-yl)-4-(6-(6-(3-phenylpropioloyl)-3,6-diazabicyclo[3.1.1]heptane-3-yl)pyridin-3-yl)pyrazolo[1,5-a]pyridine-3-carbonitrile] | 74.1 | 5.82
25 | C#Cc1ccc(C(=O)N2C3CC2CN(c2ccc(-c4cc(-c5cnn(C)c5)cn5ncc(C#N)c45)cn2)C3)cc1F [Example 232, 4-(6-(6-(4-ethynyl-3-fluorobenzoyl)-3,6-diazabicyclo[3.1.1]heptan-3-yl)pyridin-3-yl)-6-(1-methyl-1H-pyrazol-4-yl)pyrazolo[1,5-a]pyridine-3-carbonitrile] | 1.79 | 0.37
